{
  "source": "the NIST ThermoML archive (doi:10.1016/j.jct.2013.03.003)",
  "assay": "osmotic coefficient (dimensionless); mn = molality of the nth substance listed, in mol/kg",
  "settings": "298.15 K, Liquid, isopiestic method",
  "note": "Numbers after ± are expanded uncertainties.",
  "data": [
    {"molecule": "[Br-].[K+]", "note": "[potassium bromide] + O", "values": [
      {"measurement": "osmotic coefficient", "setting": "m1 = 2.545", "value": "0.9434 ± 0.0029"},
      {"measurement": "osmotic coefficient", "setting": "m1 = 2.703", "value": "0.9473 ± 0.0027"},
      {"measurement": "osmotic coefficient", "setting": "m1 = 2.947", "value": "0.9544 ± 0.0023"},
      {"measurement": "osmotic coefficient", "setting": "m1 = 3.171", "value": "0.9579 ± 0.0021"},
      {"measurement": "osmotic coefficient", "setting": "m1 = 3.46", "value": "0.965 ± 0.0019"},
      {"measurement": "osmotic coefficient", "setting": "m1 = 3.778", "value": "0.9757 ± 0.0015"},
      {"measurement": "osmotic coefficient", "setting": "m1 = 4.026", "value": "0.9849 ± 0.0011"},
      {"measurement": "osmotic coefficient", "setting": "m1 = 4.214", "value": "0.9911 ± 0.0009"},
      {"measurement": "osmotic coefficient", "setting": "m1 = 4.694", "value": "1.0054 ± 0.001"},
      {"measurement": "osmotic coefficient", "setting": "m1 = 5.41", "value": "1.032 ± 0.002"}
    ]}
  ]
}
